A word on the half-life: it is how long it takes for the measured level to halve. The low end stands for rapid decline, the high end for slow decline.

The values below come from publication PMC9681850, “Structural basis of synthetic agonist activation of the nuclear receptor REV-ERB” (Nature Communications, 2022).

Several values for one entry are separate records, joined by “and”; a condition that tells them apart may be missing. Equal entries are not always repeated.

Series [1] deals with proliferating C2C12 mouse myoblast cells. Nature of the series: cell viability by crystal violet staining. The format is cell-based. The note with it: for cell viability (Fig. 2b source data): crystal violet, normalized to DMSO, single replicates; for reduction in cellular viability: proliferating C2C12 cells. The method, then:
Cellular viability was tested in two cell types, human hepatocarcinoma HepG2 cells and proliferating C2C12 mouse myoblast cells.
Data are presented as mean ± SEM. Source data are available as a Source Data file.
The human hepatocellular carcinoma cell line, HepG2 cells (ATCC HB-8065), were cultured in 10% FBS 1% L-Glu MEM at 37 °C in a humidified atmosphere of 5% CO2. Prior to RNA extraction cells were treated with either DMSO or REV-ERB agonist for 24 h. The C2C12 proliferating mouse myoblast cells (ATCC, CRL-1772) were cultured in 10% FBS DMEM at 37 °C in a humidified atmosphere of 5% CO2. Prior to RNA extraction cells were treated with either DMSO or REV-ERB agonist for 24 h. […]
[…] Media was removed, and cells were incubated with 0.5% crystal violet solution for 20 min at room temperature with mild agitation. Cells were washed four times with tap water before being air drying overnight. Cells were incubated in methanol for 20 min with mild agitation. Absorbance was read at 570 nm, and readings were normalized to vehicle (DMSO) treated cells.

Series [2] can be described thus: tissue exposure following i.p. administration. The format is in vivo, C57Bl/6 J mice. The note with it: mice. The procedure:
To test the efficacy of STL1267 in vivo, we began by assessing tissue exposure following i.p. administration. We administered vehicle or 50 mg/kg of STL1267 via intraperitoneal injection to C57Bl/6 J mice. The mice were sacrificed at four subsequent time points over the next 12 h.
All in vivo studies were performed using the ARRIVE guidelines and approved by the Washington University IACUC. C57Bl/6J mice (male; 6–8 weeks of age) maintained at 12:12 h light;dark, 22 °C, 40–60% humidity. Mice were injected IP with 50 mg/kg STL1267 (n = 3–4 per group) or vehicle (10% DMSO, 12% TWEEN80, PBS) (n = 3–4 per group). Mice were weighed immediately following the injection and were weighed again immediately after sacrifice. Mice were fasted started at the time of injection. For tissue collection, three STL1267-injected mice were sacrificed at 1 h post-injection, and three more were sacrificed at 3 h post-injection. At 8 h and 12 h post-injection, six mice from each treatment group were taken down and tissue was collected. The tissues collected at all four time points include plasma, white adipose tissue, brain, liver, and skeletal muscle (quadriceps). […] Analytes were extracted using protein precipitation techniques with acetonitrile and samples were then analyzed using a SCIEX Triple Quad 5500+ system – QTRAP ready linked to an ExionLC AD-HPLC system. […]

Series [3] can be described thus: mouse liver microsome stability assay. The note with it: liver microsomes. The format is in vitro ADME. An excerpt:
We thank the reviewers for the constructive comments, and we have responded to each of the […]
Overall, this is a commendable structure-function study on the transcriptional repressor, REV-ERBα. It includes the identification of an agonist that belongs to the non-heme class of small ligands. The study combines cell-based and in vitro, in vivo, and crystallographic analyses of the ligand-receptor molecular complex.
However, as a spring-board for therapeutic drug discovery, there are a few additional issues that may need to be clarified.
1. In the HEK293 2-hybrid assay, the ERB agonists are described as activators of transcription.
Perhaps, they would be more appropriately described as 'repressors'.
We have updated the manuscript to clarify this issue. In the original manuscript, we used the following to describe how the 2-hybrid assay switches agonists from repressors to activators to allow for better resolution of activity, “This format of the assay essentially functions as a mammalian 2-hybrid assay and detects REVERB agonists as activators of transcription effectively enhancing the sensitivity of such an assay from the typical one hybrid system that detects enhancement of transcriptional repression.” […]
In general terms: Liver microsomes are vesicles of endoplasmic reticulum, rich in cytochrome P450 enzymes.

As to `Clc1nnc2ccc(Oc3ccccc3-c3ccccc3)nn12` [STL1267], the “cell viability (Fig. 2b source data)” value is 92.0631 and 77.3068 and 87.5705 and 94.4131 and 98.2145 and 106.232 and 102.707 in series [1] (C2C12, 1 uM); 85.9463 and 90.0242 and 93.8256 and 90.5771 and 97.5579 and 103.433 and 103.26 and 102.949 in series [1] (C2C12, 2 uM); 92.9616 and 90.6808 and 91.0609 and 85.0824 and 101.498 and 105.679 and 104.435 and 94.6204 in series [1] (C2C12, 5 uM); 88.9874 and 85.3588 and 77.2722 and 82.9397 and 90.0242 and 92.8925 and 94.5859 and 92.7197 in series [1] (C2C12, 10 uM); 77.9634 and 78.8964 and 75.3024 and 82.4905 and 83.4236 and 81.9721 and 84.5985 and 90.5771 in series [1] (C2C12, 20 uM). The “reduction in cellular viability” value is given as ~ 10% in series [1] (10 μM) and ~ 20% in series [1] (20 μM). Further, the half-life in series [2] (male, C57Bl/6J, mouse, plasma, ip, 50 mg/kg intraperitoneal injection) is ~1.6 h; in series [3], 0.567 h. Also, the “tissue distribution (brain, plasma, liver, skeletal muscle, white adipose tissue)” value in series [2] (50 mg/kg i.p.) was “localized in all the tissues collected”.
